The text below walks through data of patent US9284312B2, “N-methyl tetrahydroquinoline M1 receptor positive allosteric modulators” (Merck Sharp & Dohme Corp., priority 2011, dated 2016).

Read-outs that look alike come from different tables or passages of the source.

The test addresses T1, acetylcholine muscarinic M1 receptor (Homo sapiens, UniProt P11229).
T1 construct: expressed in transfected cells; host or cells: CHOnfat (CHO cells, Geneticin-selected) expressing hM1
T1 sequence (P11229 1-460): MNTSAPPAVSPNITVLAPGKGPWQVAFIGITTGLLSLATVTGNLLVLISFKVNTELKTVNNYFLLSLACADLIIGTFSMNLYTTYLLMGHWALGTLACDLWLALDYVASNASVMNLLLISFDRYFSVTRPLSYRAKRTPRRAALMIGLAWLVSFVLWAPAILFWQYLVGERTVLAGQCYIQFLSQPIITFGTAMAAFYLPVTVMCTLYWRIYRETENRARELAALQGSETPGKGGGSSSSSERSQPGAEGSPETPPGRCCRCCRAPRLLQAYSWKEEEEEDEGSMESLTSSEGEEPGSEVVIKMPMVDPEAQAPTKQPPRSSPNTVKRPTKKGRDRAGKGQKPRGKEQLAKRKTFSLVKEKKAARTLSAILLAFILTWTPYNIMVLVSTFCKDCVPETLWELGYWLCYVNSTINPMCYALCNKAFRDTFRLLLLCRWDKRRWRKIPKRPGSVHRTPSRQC
As to the kind of experiment: muscarinic FLIPR assay: intracellular calcium in CHOnfat/hM1 cells with EC20 acetylcholine (positive allosteric modulation). The class given is cell-based. The method, then: The assay studies the effect of one or several concentrations of test compounds on basal or acetylcholine-stimulated Ca^2+ levels using FLIPR.
Compounds are prepared and subjected to a preincubation period of 4 min. Thereafter, a single EC20 concentration of acetylcholine is added to each well (3 nM final). The intracellular Ca^2+ level of each sample is measured and compared to an acetylcholine control to determine any modulatory activity.
Cells: CHOnfat/hM1, hM2, hM3 or hM4 cells are plated 24 hr before the assay at a density of 18,000 cells/well (100 μL) in a 384 well plate. CHOnfat/hM1 and CHOnfat/hM3 Growth Medium: 90% DMEM (Hi Glucose); 10% HI FBS; 2 mM L-glutamine; 0.1 mM NEAA; Pen-Strep; and 1 mg/ml Geneticin, are added. For M2Gqi5CHOnfat and M4Gqi5CHOnfat cells, an additional 600 ug/ml hygromycin is added.
Equipment: 384 well plate, 120 μL addition plate; 96-well Whatman 2 ml Uniplate Incubator, 37° C., 5% CO2; Skatron EMBLA-384 Plate Washer; Multimek Pipetting System; Genesis Freedom 200 System; Mosquito System; Temo Nanoliter Pipetting System; and FLIPR^384 Fluorometric Imaging Plate Reader System are used.
Buffers. Assay Buffer: Hanks Balanced Salt Solution, with 20 mM Hepes, 2.5 mM Probenecid (Sigma P-8761) first dissolved in 1 N NaOH, 1% Bovine Serum Albumin (Sigma A-9647). Dye Loading Buffer: Assay Buffer plus 1% Fetal Bovine Serum and Fluo-4AM/Pluronic Acid Mixture. 2 mM Fluo-4AM ester stock in DMSO (Molecular Probes F-14202) Concentration of 2 μM in buffer for a final concentration of […] in Assay. 20% Pluronic Acid Solution stock, with concentration of 0.04% in Buffer, 0.02% in Assay.
65 μL of 2 mM Fluo-4AM are mixed with 130 μL of 20% Pluronic Acid. The resulting solution and 650 μL FBS is added to the assay buffer for a total volume of 65 mL. Positive Controls: 4-Br-A23187: 10 mM in DMSO; final concentration 10 μM. Acetylcholine: 10 mM in water, working stock at both 20 μM and 30 μM in assay buffer, final concentration of 10 μM. This is used to check the maximum stimulation of the CHOK1/hM1 cells. 20 μM (2×) acetylcholine is added in the preincubation part of the assay, and the 30 μM (3×) stock is added in the second part. (EC20)Acetylcholine: 10 mM in water, working stock of 9 nM (3×), and final concentration in assay is 3 nM. This is used after the preincubation with test compounds. Addition of the EC20 Acetylcholine to each well with a test compound will ascertain any modulator activity. 24 wells contain 3 nM Acetylcholine alone as a control.
Determining Activity of Putative Compounds:
Screening Plate: Compounds are titrated in 96-well plates (columns 2-11), 100% DMSO, started at a concentration of 15 mM (150× stock concentration), and 3-fold serial dilutions using Genesis Freedom200 System. Four 96-well plates are combined into a 384-well plate using Mosquito Nanoliter Pipetting System by transferring 1 μl of serial diluted compounds to each well, and 1 mM acetylcholine (100× stock concentration) were added as a control. Using Temo, 49 μl assay buffer is added to each well of the 384-well plate right before assay.
In a 96-well Whatman 2 ml Uniplate, 9 nM Acetylcholine (3×) is pipetted into wells corresponding to the screening compounds, and into control wells. The 30 μM acetylcholine control (3×) is added into control wells, and the 3× agonist plate is transferred into a 384 well plate.
Cells are washed three times with 100 μL of buffer, leaving 30 μL of buffer in each well. Using Multimek, 30 μL of Dye Loading Buffer is added into each well and incubated at 37° C., 5% CO2 for up to one hr.
After 60 min, the cells are washed three times with 100 μL of buffer, leaving 30 μL of buffer in each well. The cell plate, screening plate, and agonist addition plates are placed on the platform in the FLIPR and the door closed. A signal test to check background fluorescence and basal fluorescence signal is performed. Laser intensity is adjusted if necessary. […]
For orientation: Calcium assays in cells follow changes in intracellular calcium, usually with a dye or a luminescent sensor.

Where [1] appears, read: CHOnfat/hM1 cells, FLIPR Ca2+, 4 min preincubation, then EC20 acetylcholine (3 nM final), read-out: IP Value (inflection point).

In the case of `COc1cc(Cc2cc3c(=O)n([C@H]4CCCC[C@@H]4O)cnc3c3c2C=CCN3C)ccn1` [Example 9, 3-[(1S,2S)-2-Hydroxycyclohexyl]-6-[(2-methoxypyridin-4-yl)methyl]-10-methyl-9,10-dihydropyrido[3,2-h]quinazolin-4(3H)-one], under setting [1], the EC50 came out at 5.2 nM.

For the compound `CN1CC=Cc2c(Cc3ccc(Cl)nc3)cc3c(=O)n([C@H]4CCOC[C@@H]4O)cnc3c21` [Example 2, 6-[(6-Chloropyridin-3-yl)methyl]-3-[(3R,4S)-3-hydroxytetrahydro-2H-pyran-4-yl]-10-methyl-9,10-dihydropyrido[3,2-h]quinazolin-4(3H)-one], the EC50 under setting [1] is 4.3 nM.

Turning to `CN(C)C(=O)Oc1ccc(Cc2cc3c(=O)n([C@H]4CCCC[C@@H]4O)cnc3c3c2C=CCN3C)cc1` [Example 8, 4-({3-[(1S,2S)-2-Hydroxycyclohexyl]-10-methyl-4-oxo-3,4,9,10-tetrahydropyrido[3,2-h]quinazolin-6-yl}methyl)phenyl dimethylcarbamate], the EC50 was 25 nM.

Consider `CN1CC=Cc2c(Cc3cccnc3)cc3c(=O)n([C@H]4CCCC[C@@H]4O)cnc3c21` [Example 5, 3-[(1S,2S)-2-Hydroxycyclohexyl]-10-methyl-6-(pyridine-3-ylmethyl)-9,10-dihydropyrido[3,2-h]quinazolin-4(3H)-one], for which the EC50 under setting [1] stood at 21 nM.

Take `CSc1ccc(Cc2cc3c(=O)n([C@H]4CCCC[C@@H]4O)cnc3c3c2C=CCN3C)cn1` [Example 3, 3-[(1S,2S)-2-Hydroxycyclohexyl]-10-methyl-6-{[-(methylthio)-pyridin-3-yl]methyl}-9,10-dihydropyrido[3,2-h]quinazolin-4(3H)-one]: the EC50 under setting [1] came out at 4.2 nM.

For `CCN1CC=Cc2c(Cc3ccc(Cl)nc3)cc3c(=O)n([C@H]4CCCC[C@@H]4O)cnc3c21` [Example 46], the EC50 (column head 'H Pot.' of the untitled table after Table 1, no unit or method printed, read-out: H Pot.) came to 263 nM.

On to `CN1CC=Cc2c(Cc3ccc(-c4cnn(C)c4)nc3)cc3c(=O)n([C@H]4CCCC[C@@H]4O)cnc3c21` [Example 6, 3-[(1S,2S)-2-Hydroxycyclohexyl]-10-methyl-6-{[6-(1-methyl-1H-pyrazol-4-yl)pyridin-3-yl]methyl}-9,10-dihydropyrido[3,2-h]quinazolin-4(3H)-one], for which the EC50 under setting [1] is 2.6 nM.

Turning to `CN1CC=Cc2c(Cc3ccc(O)cc3)cc3c(=O)n([C@H]4CCCC[C@@H]4O)cnc3c21` [Example 7, 6-(4-Hydroxybenzyl)-3-[(1S,2S)-2-hydroxycyclohexyl]-10-methyl-9,10-dihydropyrido[3,2-h]quinazolin-4(3H)-one], the EC50 under setting [1] came to 2.6 nM.

Consider `COc1ccc(Cc2cc3c(=O)n([C@H]4CCCC[C@@H]4O)cnc3c3c2C=CCN3C)cn1` [Example 4, 3-[(1S,2S)-2-Hydroxycyclohexyl]-6-[(6-methoxypyridin-3-yl)methyl]-10-methyl-9,10-dihydropyrido[3,2-h]quinazolin-4(3H)-one], for which, under setting [1], the EC50 came out at 14 nM.

In the case of `CN1CC=Cc2c(Cc3ccc(Cl)nc3)cc3c(=O)n([C@H]4CCCC[C@@H]4O)cnc3c21` [Example 1, 6-[(6-Chloropyridin-3-yl)methyl]-3-[(1S,2S)-2-hydroxycyclohexyl]-10-methyl-9,10-dihydropyrido[3,2-h]quinazolin-4(3H)-one], under setting [1], the EC50 came to 3 nM.
